Measured values as given in paper PMC12040169 (PLOS Biology, 2025).

Assay: in vitro
Details: human, hela cells, % viability

O=C(Nc1ccc(NC(=O)c2ccccc2O)cc1)c1cnc(-c2ccccc2)c(-c2ccncc2)c1 [CBK037490]
viability at 28.5 h, 10 µM: 80.5%

CN(C)CCN1CCN(c2nc(Br)cn3ccnc23)CC1 [CBK037501]
viability at 28.5 h, 10 µM: 91.3%

CN(Cc1ccccc1)c1nccnc1-c1ccccc1Cl [CBK037502]
viability at 28.5 h, 10 µM: 103%

CC(=O)c1ccc(-c2nccnc2N(C)Cc2ccccc2)s1 [CBK037504]
viability at 28.5 h, 10 µM: 112%

CS(=O)(=O)CCNC(=O)c1cnc(-c2ccc(F)cc2)c(-c2ccco2)c1 [CBK037505]
viability at 28.5 h, 10 µM: 93.1%

COc1ncc(-c2nccnc2NCc2cccc(OC)c2OC)c(OC)n1 [CBK037506]
viability at 28.5 h, 10 µM: 76.9%

CC(=O)c1ccc(-c2nccnc2NCc2cccc([N+](=O)[O-])c2)s1 [CBK037509]
viability at 28.5 h, 10 µM: 106%

c1cc(CNc2nccnc2-c2ccsc2)ccn1 [CBK037513]
viability at 28.5 h, 10 µM: 103%

COc1ccc(-c2cc(C(=O)Nc3ccccn3)cnc2-c2ccccc2)cn1 [CBK037519]
viability at 28.5 h, 10 µM: 89.3%

CC(C)[C@H](CO)Nc1nc(-c2ccc(CCC(=O)O)cc2)cn2ccnc12 [CBK037522]
viability at 28.5 h, 10 µM: 92.7%

COc1ccc(-c2nc(NC(=O)Cc3ccc(S(C)(=O)=O)cc3)cnc2-c2cccc(C)c2)cc1 [CBK037525]
viability at 28.5 h, 10 µM: 88.2%

Oc1cccc(-c2cn3ccnc3c(NCc3ccccn3)n2)c1 [CBK037535]
viability at 28.5 h, 10 µM: 102%

Nc1cccc(-c2nccnc2NCc2cccs2)c1 [CBK037537]
viability at 28.5 h, 10 µM: 104%

CC(C)[C@@H](CO)Nc1nc(-c2cccnc2)cn2ccnc12 [CBK037539]
viability at 28.5 h, 10 µM: 94%

Nc1cccc(-c2nc(NC(=O)Cc3ccccc3)cnc2-c2ccc(F)cc2)c1 [CBK037550]
viability at 28.5 h, 10 µM: 91.3%

COc1ccc(-c2nc(NC(=O)Cc3ccccc3OC(F)(F)F)cnc2-c2cccc(C)c2)cc1 [CBK037551]
viability at 28.5 h, 10 µM: 107%

COc1ccc(-c2cc(C(=O)Nc3nccs3)cnc2-c2ccc(Cl)cc2)cc1 [CBK037553]
viability at 28.5 h, 10 µM: 87.4%

O=C(NCC(c1cccnc1)N1CCOCC1)c1cnc(-c2ccc(Cl)cc2)c(-c2ccco2)c1 (stereo not drawn) [CBK037554]
viability at 28.5 h, 10 µM: 100%

CCNC(=O)c1cnc(-c2cccc(C(F)(F)F)c2)c(-c2cccc(CO)c2)c1 [CBK037557]
viability at 28.5 h, 10 µM: 94.7%

COc1ccc(-c2nc(NC(=O)c3ccc(S(N)(=O)=O)cc3)cnc2-c2cccc(C)c2)cc1 [CBK037559]
viability at 28.5 h, 10 µM: 103%

COc1ccc(-c2cc(C(=O)NCCc3ccc(N)cc3)cnc2-c2ccc(Cl)cc2)cc1 [CBK037561]
viability at 28.5 h, 10 µM: 91.6%

COc1ccc(-c2cc(C(=O)NCC(O)c3ccc4ccccc4c3)cnc2-c2ccccc2)cn1 (stereo not drawn) [CBK037562]
viability at 28.5 h, 10 µM: 103%

O=C(O)c1cccc(NC(=O)c2cnc(-c3cccc(C(F)(F)F)c3)c(-c3cccc(CO)c3)c2)c1 [CBK037565]
viability at 28.5 h, 10 µM: 96%

O=C(Nc1cccnc1)c1cnc(-c2ccc(Cl)cc2)c(-c2cccnc2)c1 [CBK037568]
viability at 28.5 h, 10 µM: 102%

Cc1cccc(-c2ncc(NC(=O)COc3ccc4ccccc4c3)nc2-c2ccc(N(C)C)cc2)c1 [CBK037575]
viability at 28.5 h, 10 µM: 111%

COc1ccc2nc(NC(=O)c3cnc(-c4ccc(Cl)cc4)c(-c4cccnc4)c3)sc2c1 [CBK037576]
viability at 28.5 h, 10 µM: 105%

CN(C)c1ccc(CC(=O)Nc2cnc(-c3ccc(F)c(Cl)c3)c(-c3ccco3)n2)cc1 [CBK037581]
viability at 28.5 h, 10 µM: 97.9%

COc1ccc(-c2nc(NC(=O)Cc3ccc(N(C)C)cc3)cnc2-c2ccc(F)cc2)cn1 [CBK037582]
viability at 28.5 h, 10 µM: 97.9%

CCNC(=O)c1cnc(-c2ccc(Cl)cc2)c(-c2cccnc2)c1 [CBK037584]
viability at 28.5 h, 10 µM: 103%

O=C(NCCS(=O)(=O)c1ccccc1)c1cnc(-c2ccc(Cl)cc2)c(-c2ccncc2)c1 [CBK037587]
viability at 28.5 h, 10 µM: 100%

N#Cc1ccccc1N1CCN(c2ccc(-c3ccccc3)cn2)CC1 [CBK037590]
viability at 28.5 h, 10 µM: 97.8%

COc1ccc(NC(=O)c2cnc(-c3cccc(C(F)(F)F)c3)c(-c3ccncc3)c2)cc1 [CBK037593]
viability at 28.5 h, 10 µM: 87.3%

Nc1ccc(-c2nc(NC(=O)c3cccs3)cnc2-c2ccc(F)cc2)cc1 [CBK037597]
viability at 28.5 h, 10 µM: 94.2%

CN1CCN(c2cccc(-c3ccccc3Oc3ccccc3)n2)CC1 [CBK037598]
viability at 28.5 h, 10 µM: 101%

COc1ncc(-c2cccc(N(C)CCN(C)C)n2)c(OC)n1 [CBK037599]
viability at 28.5 h, 10 µM: 99.1%

CC(C)CNc1ccc(-c2cccc(N(C)C)c2)cn1 [CBK037603]
viability at 28.5 h, 10 µM: 76.9%

O=C(NC(CN1CCOCC1)c1ccccc1)c1cnc(-c2ccc(Cl)cc2)c(-c2ccncc2)c1 (stereo not drawn) [CBK037604]
viability at 28.5 h, 10 µM: 100%

O=C(NCc1ccc(Cl)cc1)c1cnc(-c2cccc(C(F)(F)F)c2)c(-c2ccncc2)c1 [CBK037607]
viability at 28.5 h, 10 µM: 84.8%

COc1cc(C)c(Nc2cccc(-c3ccc(O)cc3)n2)cc1OC [CBK037608]
viability at 28.5 h, 10 µM: 107%

CN(C)CCN1CCN(c2cccc(-c3ccc(-c4ccccc4)cc3)n2)CC1 [CBK037610]
viability at 28.5 h, 10 µM: 103%

CN1CCN(c2ccc(-c3cccc(N(C)C)c3)cn2)CC1 [CBK037621]
viability at 28.5 h, 10 µM: 102%

COC(=O)C(NC(=O)c1cnc(-c2cccc(C(F)(F)F)c2)c(-c2ccncc2)c1)c1ccccc1 (stereo not drawn) [CBK037624]
viability at 28.5 h, 10 µM: 98.9%

c1cc(-c2nccnc2NCC2CCCCC2)ccn1 [CBK037627]
viability at 28.5 h, 10 µM: 99.4%

Fc1cccc(-c2nccnc2NCc2cccnc2)c1 [CBK037633]
viability at 28.5 h, 10 µM: 88.3%

c1cncc(CNc2nccnc2-c2ccoc2)c1 [CBK037635]
viability at 28.5 h, 10 µM: 96.4%

c1cncc(Nc2cccc(-c3cnc4ccccc4c3)n2)c1 [CBK037638]
viability at 28.5 h, 10 µM: 98.8%

CN1CCN(c2cccc(-c3ccc(CNC(=O)OC(C)(C)C)cc3)n2)CC1 [CBK037641]
viability at 28.5 h, 10 µM: 95.2%

COc1ccc(-c2cccc(Nc3cccnc3)n2)cc1OC [CBK037644]
viability at 28.5 h, 10 µM: 94.6%

Oc1cccc(-c2nccnc2NCc2ccc(Cl)cc2)c1 [CBK037650]
viability at 28.5 h, 10 µM: 92.8%

COc1cc(-c2nccnc2N[C@@H]2CCN(Cc3ccccc3)C2)cc(OC)c1OC [CBK037651]
viability at 28.5 h, 10 µM: 96.7%

CCCCN(C)c1nccnc1-c1cccc(O)c1 [CBK037652]
viability at 28.5 h, 10 µM: 99%

COc1ccc(Nc2ccc(-c3ccc(C(=O)O)cc3)cn2)cc1 [CBK037654]
viability at 28.5 h, 10 µM: 95.2%

O=c1[nH]ccn1CCNc1ccc(-c2cccc3cccnc23)cn1 [CBK037658]
viability at 28.5 h, 10 µM: 79.2%

c1cncc(-c2ccc(N3CCN(CCN4CCCC4)CC3)nc2)c1 [CBK037661]
viability at 28.5 h, 10 µM: 108%

COc1ncc(-c2nccnc2NCc2ccc(F)cc2)c(OC)n1 [CBK037668]
viability at 28.5 h, 10 µM: 96.7%

CC(O)CNc1nccnc1-c1ccc(S(C)(=O)=O)cc1 (stereo not drawn) [CBK037669]
viability at 28.5 h, 10 µM: 96.1%

COc1ccc(-c2cccc(N3CCN(CCN4CCCC4)CC3)n2)cc1OC [CBK037680]
viability at 28.5 h, 10 µM: 84.9%

COc1cccc(Nc2cc(-c3ccc(N4CCOCC4)cc3)ncn2)c1OC [CBK037687]
viability at 28.5 h, 10 µM: 94.7%

O=C(c1ccco1)N1CCN(c2cc(-c3ccsc3)ncn2)CC1 [CBK037690]
viability at 28.5 h, 10 µM: 100%

COc1cc(Nc2cccc(-c3cccc(NC(C)=O)c3)n2)cc(OC)c1OC [CBK037698]
viability at 28.5 h, 10 µM: 111%

CC(=O)Nc1cccc(-c2ccc(Nc3cccnc3)nc2)c1 [CBK037703]
viability at 28.5 h, 10 µM: 96.7%

COc1ncc(-c2cc(N3CCN(c4ccccn4)CC3)ncn2)c(OC)n1 [CBK037707]
viability at 28.5 h, 10 µM: 102%

COc1cc(C)c(Nc2cc(-c3ccc4c(c3)OCO4)ncn2)cc1OC [CBK037711]
viability at 28.5 h, 10 µM: 98.9%

COc1cc(Nc2cc(-c3cccc(N)c3)ncn2)cc(OC)c1OC [CBK037713]
viability at 28.5 h, 10 µM: 117%

COc1ncc(-c2ccc(NCCn3cc[nH]c3=O)nc2)c(OC)n1 [CBK037719]
viability at 28.5 h, 10 µM: 88.9%

COc1cncc(-c2ccc(N3CCN(CCN(C)C)CC3)nc2)c1 [CBK037720]
viability at 28.5 h, 10 µM: 88.9%

CN(C)c1cccc(-c2ccc(Nc3cccc(NC(=O)c4ccncc4)c3)nc2)c1 [CBK037721]
viability at 28.5 h, 10 µM: 58.7%

COc1ncc(-c2cccc(NCC(c3cccnc3)N(C)C)n2)c(OC)n1 (stereo not drawn) [CBK037723]
viability at 28.5 h, 10 µM: 104%

COc1cc(C)c(Nc2cccc(/C=C/c3ccccc3)n2)cc1OC [CBK037725]
viability at 28.5 h, 10 µM: 102%

O=c1[nH]ccn1CCNc1cc(-c2cccc3oc4ccccc4c23)ncn1 [CBK037726]
viability at 28.5 h, 10 µM: 102%

c1ccc(CN2CCN(c3ccc(Nc4cc(-c5ccncc5)ncn4)cc3)CC2)cc1 [CBK037727]
viability at 28.5 h, 10 µM: 92.3%

c1ccc(Oc2ccccc2-c2cc(N3CCC(N4CCCCC4)CC3)ncn2)cc1 [CBK037728]
viability at 28.5 h, 10 µM: 88.7%

FC(F)(F)Oc1ccc(-c2cc(NCCc3ccccn3)ncn2)cc1 [CBK037732]
viability at 28.5 h, 10 µM: 98.2%

CN(C)c1cccc(-c2ccc(Nc3ccc(N4CCOCC4)cc3)nc2)c1 [CBK037735]
viability at 28.5 h, 10 µM: 92.2%

Cc1ccc(-c2ccc(Nc3ccc(Oc4ccccc4)cc3)nc2)cc1C [CBK037740]
viability at 28.5 h, 10 µM: 92.7%

COc1cncc(-c2cccc(NCC(c3cccnc3)N(C)C)n2)c1 (stereo not drawn) [CBK037741]
viability at 28.5 h, 10 µM: 93.6%

c1cncc(Nc2cccc(-c3ccco3)n2)c1 [CBK037742]
viability at 28.5 h, 10 µM: 100%

COc1ccc(Nc2ccc(-c3ccc4ccccc4c3)cn2)cn1 [CBK037744]
viability at 28.5 h, 10 µM: 88.6%

CCCNc1cc(-c2cccc(Cl)c2)nc2ccnn12 [CBK037747]
viability at 28.5 h, 10 µM: 112%

COc1ccc(-c2cc(N3CCC(N4CCCCC4)CC3)ncn2)cc1OC [CBK037752]
viability at 28.5 h, 10 µM: 90%

COc1cc(C)c(Nc2cc(-c3cccnc3)ncn2)cc1OC [CBK037754]
viability at 28.5 h, 10 µM: 102%

O=C(NCCO)c1cccc(-c2cncc(N3CCCCC3CCO)n2)c1 (stereo not drawn) [CBK037759]
viability at 28.5 h, 10 µM: 104%

CCN(CCO)c1ccc(Nc2cc(-c3ccc(C#N)cc3)ncn2)cc1 [CBK037764]
viability at 28.5 h, 10 µM: 87.9%

c1cc(N2CCN(CCN3CCCC3)CC2)ncc1-c1ccc2c(c1)OCO2 [CBK037769]
viability at 28.5 h, 10 µM: 95.1%

COc1cncc(-c2ccc(Nc3ccc(OC)nc3)nc2)c1 [CBK037773]
viability at 28.5 h, 10 µM: 103%

CCCC/C=C/c1ccc(Nc2ccc3c(c2)OCCO3)nc1 [CBK037774]
viability at 28.5 h, 10 µM: 93.3%

COc1ccc(C(=O)OC(C)(C)C)c(-c2cncc(N3CCCCC3CCO)n2)c1 (stereo not drawn) [CBK037786]
viability at 28.5 h, 10 µM: 104%
